These results are taken from patent US12084430B2, “Tricyclic urea compounds as JAK2 V617F inhibitors” (Incyte Corporation, priority 2022, dated 2024).

The target in data set [1] is T1, pseudo-kinase domain (JH2) of human V617F mutant JAK2 (Homo sapiens, UniProt O60674, F794H/V617F/W659A/W777A).
T1 construct: pseudo-kinase domain (JH2, amino-acids 536-812 with 3 surface mutations W659A, W777A, F794H); His (C); purchased BPS Bioscience 79498; host or cells: baculovirus expression system
In words: JAK2 LanthaScreen JH2-V617F binding assay. The settings on record: read-out: JH2 V617F Bind IC50. As for the experimental part:
Example B. JAK2 LanthaScreen JH2-V617F Binding Assay
JAK2 JH2-V617F binding assay utilizes pseudo-kinase domain (JH2, amino-acids 536-812 with 3 surface mutations W659A, W777A, F794H) of human V617F mutant JAK2 expressed as C-terminal His-Avi-tagged, biotinylated protein in a baculovirus expression system (BPS Bioscience, Catalog #79498). The assay was conducted in black 384-well polystyrene plates in a final reaction volume of 20 μL. JAK2 JH2-V617F (0.26 nM) was incubated with compounds (100 nL serially diluted in DMSO) in the presence of 50 nM Fluorescent JAK2-JH2 Tracer (MedChem Express Catalog #HY-102055) and 0.25 nM Streptavidin-Tb cryptate (Cisbio Part #610SATLB) in assay buffer (50 mM Tris, pH=7.5, 10 mM MgCl2, 0.01% Brij-35, 0.1% BSA, 1 mM EGTA, 5% Glycerol and 5 mM DTT). Non-specific binding was accessed in the presence of 2 mM ATP. After incubation for 1 hour at 25° C., LanthaScreen signals were read on a PHERAstar FS plate reader (BMG LABTECH). Data was analyzed with IDBS XLfit and GraphPad Prism 5.0 software using a four parameter dose response curve to determine IC50 for each compound.

Data set [2] in a line: In vivo pharmacokinetics, cynomolgus monkey. Also noted: species or system Cynomolgus monkeys. To be noted: both sexes, plasma, oral 3.0 mg/kg, read-out: CYNO PO AUC. As for the experimental part: Example H. In Vivo Pharmacokinetics
Test compounds were administered to male Sprague Dawley rats or male and female Cynomolgus monkeys intravenously or via oral gavage. For intravenous (IV) dosing, test compounds were dosed at 1 mg/kg using a formulation of 10% dimethylacetamide (DMAC), 10% propylene glycol (PG) in acidified saline via IV bolus for rat or 10 min IV infusion for monkey. For oral (PO) dosing, test compounds were dosed at 3.0 mg/kg using 5% DMAC in 0.5% methylcellulose in citrate buffer (pH˜2.5). Blood samples were collected at predose and various time points up to 24 hours postdose. All blood samples were collected using EDTA as the anticoagulant and centrifuged to obtain plasma samples. The plasma concentrations of test compounds were determined by LC-MS/MS methods. The measured plasma concentrations were used to calculate PK parameters by standard noncompartmental methods using Phoenix® WinNonlin software program (version 8.0, Pharsight Corporation) or similar software. In rats and monkeys, cassette dosing of test compounds were conducted to obtain preliminary PK parameters. In vivo pharmacokinetic experiments with male beagle dogs may be performed under the conditions described above.

Read-outs that look alike come from different tables or passages of the source.

T1 sequence (O60674 536-812 V617F/W659A/W777A/F794H): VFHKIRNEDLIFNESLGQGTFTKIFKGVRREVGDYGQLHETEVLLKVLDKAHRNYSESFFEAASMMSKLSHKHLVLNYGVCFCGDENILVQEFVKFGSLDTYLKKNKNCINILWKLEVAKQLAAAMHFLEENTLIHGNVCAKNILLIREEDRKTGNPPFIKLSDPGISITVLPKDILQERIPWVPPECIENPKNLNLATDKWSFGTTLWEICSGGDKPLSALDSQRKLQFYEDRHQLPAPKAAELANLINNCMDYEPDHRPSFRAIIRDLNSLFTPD

Regarding `COC(=O)N[C@@H]1CC[C@@H](n2c(=O)n(C)c3cnc4[nH]c(-c5cn(C)nc5OC)c(-c5cccc(F)c5)c4c32)C1` [Example 3, Methyl ((1R,3R)-3-(8-(3-fluorophenyl)-7-(3-methoxy-1-methyl-1H-pyrazol-4-yl)-3-methyl-2-oxo-3,6-dihydroimidazo[4,5-d]pyrrolo[2,3-b]pyridin-1(2H)-yl)cyclopentyl)carbamate], the IC50 in data set [1] (Table A) and in data set [1] (Table C) was not above 0.01 µM throughout. Further, the AUC in data set [2] is more than 1.5 µM·h.

As for `COC(=O)N[C@@H]1CC[C@@H](n2c(=O)n(C)c3cnc4[nH]c(-c5cn(C)nc5OC)c(-c5ccc(F)cc5)c4c32)C1` [Example 1, Methyl ((1R,3R)-3-(8-(4-fluorophenyl)-7-(3-methoxy-1-methyl-1H-pyrazol-4-yl)-3-methyl-2-oxo-3,6-dihydroimidazo[4,5-d]pyrrolo[2,3-b]pyridin-1(2H)-yl)cyclopentyl)carbamate], the half-maximal inhibitory concentration (IC50) in data set [1] (Table A) and in data set [1] (Table C) was not above 0.01 µM throughout. Further, the area under the curve (AUC) in data set [2] is more than 1.5 µM·h.

On to `[2H]C([2H])([2H])n1ncc2cc(-c3c(-c4cn(C)nc4OC)[nH]c4ncc5c(c34)n([C@@H]3CC[C@@H](NC(=O)OC)C3)c(=O)n5C)ccc21` [Example 5, Methyl ((1R,3R)-3-(7-(3-methoxy-1-methyl-1H-pyrazol-4-yl)-3-methyl-8-(1-(methyl-d3)-1H-indazol-5-yl)-2-oxo-3,6-dihydroimidazo[4,5-d]pyrrolo[2,3-b]pyridin-1(2H)-yl)cyclopentyl)carbamate], for which the IC50 in data set [1] (Table A) and in data set [1] (Table C) was not above 0.01 µM in each case. The AUC in data set [2] was more than 1.5 µM·h.

Regarding `[2H]C([2H])([2H])n1cc(-c2[nH]c3ncc4c(c3c2-c2ccc3c(c2)COC3(C)C)n([C@@H]2CC[C@@H](NC(=O)OC)C2)c(=O)n4C)c(F)n1` [Example 11, Methyl ((1R,3R)-3-(8-(1,1-dimethyl-1,3-dihydroisobenzofuran-5-yl)-7-(3-fluoro-1-(methyl-d3)-1H-pyrazol-4-yl)-3-methyl-2-oxo-3,6-dihydroimidazo[4,5-d]pyrrolo[2,3-b]pyridin-1(2H)-yl)cyclopentyl)carbamate], the half-inhibitory concentration (IC50) in data set [1] (Table A) and in data set [1] (Table C) was not above 0.01 µM each time.

Regarding `[2H]C([2H])([2H])n1cc(-c2[nH]c3ncc4c(c3c2-c2ccc3c(cnn3C(C)C)c2)n([C@@H]2CC[C@@H](NC(=O)OC)C2)c(=O)n4C)c(F)n1` [Example 16, Methyl ((1R,3R)-3-(7-(3-fluoro-1-(methyl-d3)-1H-pyrazol-4-yl)-8-(1-isopropyl-1H-indazol-5-yl)-3-methyl-2-oxo-3,6-dihydroimidazo[4,5-d]pyrrolo[2,3-b]pyridin-1(2H)-yl)cyclopentyl)carbamate], the 50% inhibitory concentration (IC50) in data set [1] (Table A) and in data set [1] (Table C) was not above 0.01 µM each time.

For the compound `[2H]C([2H])([2H])n1ncc2cc(-c3c(-c4cn(C([2H])([2H])C([2H])([2H])[2H])nc4F)[nH]c4ncc5c(c34)n([C@@H]3CC[C@@H](NC(=O)OC)C3)c(=O)n5C([2H])([2H])[2H])ccc21` [Example 15, Methyl ((1R,3R)-3-(7-(1-(ethyl-d5)-3-fluoro-1H-pyrazol-4-yl)-3-(methyl-d3)-8-(1-(methyl-d3)-1H-indazol-5-yl)-2-oxo-3,6-dihydroimidazo[4,5-d]pyrrolo[2,3-b]pyridin-1(2H)-yl)cyclopentyl)carbamate], the 50% inhibitory concentration (IC50) in data set [1] (Table A) and in data set [1] (Table C) was not above 0.01 µM throughout.

Take `[2H]C([2H])([2H])n1cc(-c2[nH]c3ncc4c(c3c2-c2ccc3c(cnn3CC(F)F)c2)n([C@@H]2CC[C@@H](NC(=O)OC)C2)c(=O)n4C)c(F)n1` [Example 18, Methyl ((1R,3R)-3-(8-(1-(2,2-difluoroethyl)-1H-indazol-5-yl)-7-(3-fluoro-1-(methyl-d3)-1H-pyrazol-4-yl)-3-methyl-2-oxo-3,6-dihydroimidazo[4,5-d]pyrrolo[2,3-b]pyridin-1(2H)-yl)cyclopentyl)carbamate]: the IC50 in data set [1] (Table A) and in data set [1] (Table C) was not above 0.01 µM in each case.

With `[2H]C([2H])([2H])n1c(=O)n([C@@H]2CC[C@@H](NC(=O)OC)C2)c2c3c(-c4ccc5c(c4)COC5(C)C)c(-c4cn(CC)nc4F)[nH]c3ncc21` [Example 20, Methyl ((1R,3R)-3-(8-(1,1-dimethyl-1,3-dihydroisobenzofuran-5-yl)-7-(1-ethyl-3-fluoro-1H-pyrazol-4-yl)-3-(methyl-d3)-2-oxo-3,6-dihydroimidazo[4,5-d]pyrrolo[2,3-b]pyridin-1(2H)-yl)cyclopentyl)carbamate], the 50% inhibitory concentration (IC50) in data set [1] (Table A) and in data set [1] (Table C) was not above 0.01 µM each time.

On to `[2H]C([2H])([2H])n1c(=O)n([C@@H]2CC[C@@H](NC(=O)OC)C2)c2c3c(-c4ccc5c(c4)COC5(C)C)c(-c4cn(C([2H])([2H])C([2H])([2H])[2H])nc4F)[nH]c3ncc21` [Example 19, Methyl ((1R,3R)-3-(8-(1,1-dimethyl-1,3-dihydroisobenzofuran-5-yl)-7-(1-(ethyl-d5)-3-fluoro-1H-pyrazol-4-yl)-3-(methyl-d3)-2-oxo-3,6-dihydroimidazo[4,5-d]pyrrolo[2,3-b]pyridin-1(2H)-yl)cyclopentyl)carbamate], for which the IC50 in data set [1] (Table A) and in data set [1] (Table C) was not above 0.01 µM each time.

With `[2H]C([2H])([2H])n1cc(-c2[nH]c3ncc4c(c3c2-c2ccc3c(cnn3C(C)C)c2)n([C@@H]2CC[C@@H](NC(=O)OC)C2)c(=O)n4C([2H])([2H])[2H])c(F)n1` [Example 13, Methyl ((1R,3R)-3-(7-(3-fluoro-1-(methyl-d3)-1H-pyrazol-4-yl)-8-(1-isopropyl-1H-indazol-5-yl)-3-(methyl-d3)-2-oxo-3,6-dihydroimidazo[4,5-d]pyrrolo[2,3-b]pyridin-1(2H)-yl)cyclopentyl)carbamate], the IC50 in data set [1] (Table A) and in data set [1] (Table C) was not above 0.01 µM each time.

Regarding `[2H]C([2H])([2H])n1cc(-c2[nH]c3ncc4c(c3c2-c2cc(F)c3c(cnn3C([2H])([2H])[2H])c2)n([C@@H]2CC[C@@H](NC(=O)OC)C2)c(=O)n4C([2H])([2H])[2H])c(F)n1` [Example 17, Methyl ((1R,3R)-3-(8-(7-fluoro-1-(methyl-d3)-1H-indazol-5-yl)-7-(3-fluoro-1-(methyl-d3)-1H-pyrazol-4-yl)-3-(methyl-d3)-2-oxo-3,6-dihydroimidazo[4,5-d]pyrrolo[2,3-b]pyridin-1(2H)-yl)cyclopentyl)carbamate], the half-maximal inhibitory concentration (IC50) in data set [1] (Table A) and in data set [1] (Table C) was not above 0.01 µM in each case.

In the case of `[2H]C([2H])([2H])n1cc(-c2[nH]c3ncc4c(c3c2-c2ccc3c(cnn3CC(F)F)c2)n([C@@H]2CC[C@@H](NC(=O)OC)C2)c(=O)n4C([2H])([2H])[2H])c(F)n1` [Example 14, Methyl ((1R,3R)-3-(8-(1-(2,2-difluoroethyl)-1H-indazol-5-yl)-7-(3-fluoro-1-(methyl-d3)-1H-pyrazol-4-yl)-3-(methyl-d3)-2-oxo-3,6-dihydroimidazo[4,5-d]pyrrolo[2,3-b]pyridin-1(2H)-yl)cyclopentyl)carbamate], the IC50 in data set [1] (Table A) and in data set [1] (Table C) was not above 0.01 µM throughout.

Consider `[2H]C([2H])([2H])n1ncc2cc(-c3c(-c4cn(C([2H])(C([2H])([2H])[2H])C([2H])([2H])[2H])nc4F)[nH]c4ncc5c(c34)n([C@@H]3CC[C@@H](NC(=O)OC)C3)c(=O)n5C([2H])([2H])[2H])ccc21` [Example 21, Methyl ((1R,3R)-3-(7-(3-fluoro-1-(propan-2-yl-d7)-1H-pyrazol-4-yl)-3-(methyl-d3)-8-(1-(methyl-d3)-1H-indazol-5-yl)-2-oxo-3,6-dihydroimidazo[4,5-d]pyrrolo[2,3-b]pyridin-1(2H)-yl)cyclopentyl)carbamate], for which the IC50 in data set [1] (Table A) and in data set [1] (Table C) was not above 0.01 µM in each case.

`[2H]C([2H])([2H])n1c(=O)n([C@@H]2CC[C@@H](NC(=O)OC)C2)c2c3c(-c4ccc5c(c4)COC5(C)C)c(-c4cn(CC(F)F)nc4F)[nH]c3ncc21` [Example 12, Methyl ((1R,3R)-3-(7-(1-(2,2-difluoroethyl)-3-fluoro-1H-pyrazol-4-yl)-8-(1,1-dimethyl-1,3-dihydroisobenzofuran-5-yl)-3-(methyl-d3)-2-oxo-3,6-dihydroimidazo[4,5-d]pyrrolo[2,3-b]pyridin-1(2H)-yl)cyclopentyl)carbamate]: the IC50 in data set [1] (Table A) and in data set [1] (Table C) was not above 0.01 µM each time.

One may read the IC50 as the point on the concentration scale where inhibition reaches its midpoint. As a reminder, the AUC is the area under the concentration-time curve, a measure of exposure.
